Data taken from PubChem BioAssay (NCI).
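These data come from cells grown in 96-well plates and exposed to compound for 48 hours at five concentrations. Abbreviation: GI50, concentration required for 50% inhibition of growth. TGI is the concentration that stops growth completely.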

Legend:
Test in all cases: growth of human tumour cells (NCI), 48 h; in the data active means GI50 below about 0.43 µM; inactive means the rest
786-0 renal = tested on: 786-0 renal
A498 renal = tested on: A498 renal
A549 NSCLC = tested on: A549 NSCLC
BT-549 breast = tested on: BT-549 breast
CAKI-1 renal = tested on: CAKI-1 renal
CCRF-CEM leukemia = tested on: CCRF-CEM leukemia
COLO 205 colon = tested on: COLO 205 colon
DU-145 prostate = tested on: DU-145 prostate
EKVX NSCLC = tested on: EKVX NSCLC
HCC-2998 colon = tested on: HCC-2998 colon
HCT-116 colon = tested on: HCT-116 colon
HCT-15 colon = tested on: HCT-15 colon
HOP-62 NSCLC = tested on: HOP-62 NSCLC
HOP-92 NSCLC = tested on: HOP-92 NSCLC
HS 578T breast = tested on: HS 578T breast
HT29 colon = tested on: HT29 colon
IGROV1 ovarian = tested on: IGROV1 ovarian
K-562 leukemia = tested on: K-562 leukemia
LOX IMVI melanoma = tested on: LOX IMVI melanoma
M14 melanoma = tested on: M14 melanoma
MCF7 breast = tested on: MCF7 breast
MDA-MB-231 breast = tested on: MDA-MB-231 breast
MDA-MB-435 = tested on: MDA-MB-435
MOLT-4 leukemia = tested on: MOLT-4 leukemia
NCI-H226 lung = tested on: NCI-H226 lung
NCI-H23 lung = tested on: NCI-H23 lung
NCI-H460 lung = tested on: NCI-H460 lung
NCI-H522 lung = tested on: NCI-H522 lung
OVCAR-3 ovarian = tested on: OVCAR-3 ovarian
OVCAR-4 ovarian = tested on: OVCAR-4 ovarian
OVCAR-5 ovarian = tested on: OVCAR-5 ovarian
OVCAR-8 ovarian = tested on: OVCAR-8 ovarian
PC-3 prostate = tested on: PC-3 prostate
RPMI-8226 leukemia = tested on: RPMI-8226 leukemia
RXF 393 renal = tested on: RXF 393 renal
SF-268 CNS = tested on: SF-268 CNS
SF-295 CNS = tested on: SF-295 CNS
SF-539 CNS = tested on: SF-539 CNS
SK-MEL-2 melanoma = tested on: SK-MEL-2 melanoma
SK-MEL-28 melanoma = tested on: SK-MEL-28 melanoma
SK-MEL-5 melanoma = tested on: SK-MEL-5 melanoma
SK-OV-3 ovarian = tested on: SK-OV-3 ovarian
SN12C renal = tested on: SN12C renal
SNB-19 CNS = tested on: SNB-19 CNS
SNB-75 CNS = tested on: SNB-75 CNS
SW-620 colon = tested on: SW-620 colon
T-47D breast = tested on: T-47D breast
U251 CNS = tested on: U251 CNS
UACC-257 melanoma = tested on: UACC-257 melanoma
UACC-62 melanoma = tested on: UACC-62 melanoma
UO-31 renal = tested on: UO-31 renal

COc1cccc(OC(=O)c2ccc(C(F)(F)F)nc2Nc2c(C)cccc2Cl)c1
> 100 µM: TGI (786-0 renal) | TGI (BT-549 breast) | TGI (COLO 205 colon) | TGI (DU-145 prostate) | TGI (EKVX NSCLC) | TGI (HCT-116 colon) | TGI (HCT-15 colon) | TGI (HT29 colon) | TGI (K-562 leukemia) | TGI (M14 melanoma) | TGI (MDA-MB-435) | TGI (MOLT-4 leukemia) | TGI (NCI-H226 lung) | TGI (NCI-H460 lung) | TGI (RPMI-8226 leukemia) | TGI (SK-MEL-5 melanoma) | TGI (SK-OV-3 ovarian) | TGI (SW-620 colon) | TGI (T-47D breast) | TGI (UACC-257 melanoma)
45.9 µM: TGI (SK-MEL-2 melanoma)
47.1 µM: TGI (PC-3 prostate)
43.3 µM: TGI (IGROV1 ovarian)
40.6 µM: TGI (U251 CNS)
64.3 µM: TGI (SN12C renal)
40.9 µM: TGI (SNB-75 CNS)
21.2 µM: TGI (OVCAR-5 ovarian)
55.7 µM: TGI (RXF 393 renal)
94.6 µM: TGI (HS 578T breast)
48.5 µM: TGI (SF-295 CNS)
32 µM: TGI (UO-31 renal)
73.5 µM: TGI (SNB-19 CNS)
39.4 µM: TGI (UACC-62 melanoma)
inactive: GI50 (786-0 renal) 27.7 µM | GI50 (A498 renal) 15 µM | GI50 (A549 NSCLC) 22.8 µM | GI50 (BT-549 breast) 30.4 µM | GI50 (CAKI-1 renal) 16.3 µM | GI50 (CCRF-CEM leukemia) 25.6 µM | GI50 (COLO 205 colon) 22.6 µM | GI50 (DU-145 prostate) 32.1 µM | GI50 (EKVX NSCLC) 36.1 µM | GI50 (HCC-2998 colon) 4.63 µM | GI50 (HCT-116 colon) 25.6 µM | GI50 (HCT-15 colon) 54.1 µM | GI50 (HOP-62 NSCLC) 25.9 µM | GI50 (HOP-92 NSCLC) 17.6 µM | GI50 (HS 578T breast) 24.7 µM | GI50 (HT29 colon) 26.4 µM | GI50 (IGROV1 ovarian) 15.1 µM | GI50 (K-562 leukemia) 36.5 µM | GI50 (LOX IMVI melanoma) 20 µM | GI50 (M14 melanoma) 38.9 µM | GI50 (MCF7 breast) 15.8 µM | GI50 (MDA-MB-231 breast) 12.9 µM | GI50 (MDA-MB-435) 35 µM | GI50 (MOLT-4 leukemia) 31.5 µM | GI50 (NCI-H226 lung) 47.7 µM | GI50 (NCI-H23 lung) 1.84 µM | GI50 (NCI-H460 lung) 26.4 µM | GI50 (NCI-H522 lung) 16 µM | GI50 (OVCAR-3 ovarian) 22.8 µM | GI50 (OVCAR-4 ovarian) 13.8 µM | GI50 (OVCAR-5 ovarian) 3.13 µM | GI50 (OVCAR-8 ovarian) 19.5 µM | GI50 (PC-3 prostate) 20 µM | GI50 (RPMI-8226 leukemia) 35.8 µM | GI50 (RXF 393 renal) 25 µM | GI50 (SF-268 CNS) 24.8 µM | GI50 (SF-295 CNS) 17.1 µM | GI50 (SF-539 CNS) 23.4 µM | GI50 (SK-MEL-2 melanoma) 19.4 µM | GI50 (SK-MEL-28 melanoma) 20.5 µM | GI50 (SK-MEL-5 melanoma) 33.3 µM | GI50 (SK-OV-3 ovarian) 32.9 µM | GI50 (SN12C renal) 21.4 µM | GI50 (SNB-19 CNS) 22.4 µM | GI50 (SNB-75 CNS) 16.4 µM | GI50 (SW-620 colon) 46 µM | GI50 (T-47D breast) 18.7 µM | GI50 (U251 CNS) 19.1 µM | GI50 (UACC-257 melanoma) 33.4 µM | GI50 (UACC-62 melanoma) 17.3 µM | GI50 (UO-31 renal) 15.1 µM
86.8 µM: TGI (SF-268 CNS)
81.2 µM: TGI (MCF7 breast)
71.6 µM: TGI (SK-MEL-28 melanoma)
41.3 µM: TGI (A498 renal)
42.5 µM: TGI (MDA-MB-231 breast)
48.8 µM: TGI (CAKI-1 renal)
38.3 µM: TGI (NCI-H522 lung)
32.3 µM: TGI (HCC-2998 colon)
64.8 µM: TGI (LOX IMVI melanoma)
69.2 µM: TGI (OVCAR-3 ovarian)
46.3 µM: TGI (OVCAR-8 ovarian)
58.6 µM: TGI (A549 NSCLC)
19 µM: TGI (NCI-H23 lung)
78.9 µM: TGI (CCRF-CEM leukemia)
70.4 µM: TGI (SF-539 CNS)
82.3 µM: TGI (HOP-62 NSCLC)
41.4 µM: TGI (HOP-92 NSCLC)
30.9 µM: TGI (OVCAR-4 ovarian)
